Results taken from patent publication US8334110B2, “Detection of blood plasma amygdalin of dissipating blood stasis botanical” (Shanghai Sundise Chinese Medicine Technology Development …, priority 2007, dated 2012).

Test: UPLC/MS determination of blood plasma Amygdalin after administration of the body resistance-strengthening and blood stasis-dissipating botanical composition
Format: in vivo
Settings: blood plasma of mammals after drenched with body resistance-strengthening and blood stasis-dissipating (Fuzheng Huayu, FZHY) botanical composition; UPLC-MS, FIG. 1 (plasma taken 0.5 hours after administration)
Excerpt: a. After the administration of the body resistance-strengthening and blood stasis-dissipating botanical composition to mammals, first add 2-5 mol/L phosphoric acid to the composition-containing mammalian blood plasma and mix to homogenize, the volumetric ratio of the blood plasma to phosphoric acid is 1:2-3, feed the same to a Waters Oasis HLB cartridge that has been activated by methanol and water, leach with water and 80-100% methanol and elute with 0.2-1% ammonia methanol, then dry through evaporation and enrich the eluent at 25-30° C., and re-dissolve the eluent with a mobile phase;
Chromatographic conditions: chromatographic column: Acquity UPLC BEH C18, 2.1×100 mm, mobile phase A: Water-Acetonitrile-Formic acid 95:5:0.1 v/v/v, mobile phase B: Acetomtrile-Formic acid 100:0.1 v/v; MS conditions: electrospray ionization (ESI) ion source, detection in the positive ion mode, and the mass scanning range m/z 150˜800.
The ESI ion source in said Step (2) employs detection in the positive ion mode; the desolvation gas flow rate is 440 L/h, the desolvation gas temperature is 300° C., the cone gas flow rate is 50 L/h, the ion source temperature is 100° C., the spray capillary voltage is 3800 V, the sampling cone voltage is 30 V, the extracting cone voltage is 2.00 V, and the lens voltage is 0.1 V. The mass scanning range is m/z 150˜800.
1. […]

## N#C[C@H](O[C@@H]1O[C@H](CO[C@@H]2O[C@H](CO)[C@@H](O)[C@H](O)[C@H]2O)[C@@H](O)[C@H](O)[C@H]1O)c1ccccc1 [Amygdalin]
  Detection of Amygdalin in blood plasma: can be detected
